Reference: PubChem BioAssay AID1626 (SRMLSC, 2009)

Test system: M. tuberculosis H37Rv growth inhibition
Assay: M. tuberculosis H37Rv growth inhibitors, H37Rv strain (AID 1626)
Details: for IC90: measured here: IC90 against H37Rv; for CC50: measured here: Vero cell cytotoxicity

SMILES	IC50	IC90	CC50
Cn1nnnc1SCC(=O)Nc1nc(-c2ccccc2)c(-c2ccccc2)o1	35.6 µM	> 100 µM	> 40 µM
COCCCN=C1NN=C(c2cc(C)n(Cc3ccccc3Cl)c2C)CS1	11.3 µM	12.1 µM	16.3 µM
Fc1ccc(C(OCCN2CCN(CCCc3ccccc3)CC2)c2ccc(F)cc2)cc1	4.22 µM	5.59 µM	19.2 µM
OC(COC(c1ccc(Cl)cc1)c1ccc(Cl)cc1)CN1CCN(c2ccccn2)CC1 (stereo not given)	9.79 µM	28.3 µM	35.3 µM
CC1CCN(c2nc(-c3ccncc3)nc3ccccc23)CC1	4.62 µM	6.52 µM	> 40 µM
COc1ccccc1N1CCN(Cc2nc(N)nc(Nc3ccc(C)c(Cl)c3)n2)CC1	8.35 µM	18.7 µM	> 40 µM
Oc1cccc2ccc(/C=C/c3cccs3)nc12	1.49 µM	4.51 µM	> 40 µM
CCCSC1=C(C#N)C(c2cccs2)C(C(=O)Nc2ccccc2)=C(C)N1 (stereo not given)	7.77 µM	68.2 µM	> 40 µM
CNC(=O)c1c(NC(=O)c2nc3ccccc3s2)sc2c1CCC2	–	–	> 40 µM
CCC(C)c1ccccc1NC(=O)CN1CCN(C/C=C/c2ccccc2)CC1 (stereo not given)	21.9 µM	35.1 µM	–
c1ccc(CCNc2ccnc3cc4ccccc4cc23)cc1	1.5 µM	1.69 µM	8.57 µM
Nc1nc(F)nc2c1ncn2[C@@H]1O[C@H](CO)[C@@H](O)[C@H]1O	2.65 µM	3.95 µM	0.218 µM
Cc1ccc(Oc2nc(-c3ccccn3)nc3ccccc23)cc1	2.56 µM	10.5 µM	22.4 µM
O=C(CCl)Nc1ccccc1C(=O)NCc1ccccc1	8.16 µM	21.2 µM	24.4 µM
COc1ccc(C2(CNC(=O)c3cc([N+](=O)[O-])cc([N+](=O)[O-])c3)CCCC2)cc1OC	< 0.195 µM	0.686 µM	–
CCOC(=O)C1=Nc2ccccc2C1=[N+]=[N-]	0.906 µM	1.23 µM	36.7 µM
O=C(Nc1cc(C(F)(F)F)cc(C(F)(F)F)c1)Nc1cnn(-c2ccc([N+](=O)[O-])cc2)c1C(F)(F)F	0.676 µM	0.938 µM	2.76 µM
COc1ccc(Cn2c(SCc3cc(C)ccc3C)nc3cc(OC)c(OC)cc3c2=N)cc1	2.59 µM	2.83 µM	7.51 µM
CCOc1ccc(NC(=O)CCSc2ccc3ccccc3n2)cc1	6.54 µM	> 100 µM	–
CC(C)c1ccc(CNc2nc3nc4c(c(=O)n3[nH]2)CCC4)cc1	0.464 µM	> 100 µM	–

SMILES	IC50	IC90	CC50
N=c1n(CCN2CCCCC2)c2ccccc2n1CC(=O)c1ccc(Cl)c(Cl)c1	8.28 µM	10.5 µM	19.8 µM
Clc1ccc2c(c1)C1=C(C(c3ccncc3)O2)C(c2ccc(Br)cc2)n2ncnc2N1 (stereo not given)	2.91 µM	3.29 µM	> 40 µM
CCC(=O)Nc1nnc(-c2ccc(OC)cc2)o1	6.08 µM	> 100 µM	–
O=C(c1ccc(Cl)cc1)C1CCCN(Cc2cnn(-c3ccccc3)c2)C1 (stereo not given)	8.69 µM	11.5 µM	–
CCOC(=O)c1ccc(NC(=O)c2n[nH]c(=O)c3ccccc23)cc1	–	> 100 µM	–
OC(CNCC(c1ccc(Cl)cc1Cl)c1c[nH]c2ccccc12)c1ccccc1 (stereo not given)	6.68 µM	10.3 µM	11.2 µM
CCCCc1nc2sc3c(SCCN(C)C)ncnc3c2c2c1CCC2	12.8 µM	25.4 µM	> 40 µM
O=C(COC(=O)Cc1ccccc1)Nc1ccc(SC(F)F)cc1	36.4 µM	> 100 µM	–
CCc1nnc(NC(=O)c2cc3ccccc3oc2=O)s1	< 0.195 µM	4.5 µM	–
CCC(C)c1ccc(NC(=O)COC(=O)C2=COCCO2)cc1 (stereo not given)	4.54 µM	> 100 µM	–
O=c1cc(-c2c(F)c(F)c(F)c(F)c2F)oc2ccccc12	0.221 µM	2.3 µM	> 40 µM
COc1cc(N=c2c([N+](=O)[O-])nn(-c3ccc4c(c3)OCCO4)n2O)cc(OC)c1	–	–	16.2 µM
CCOc1ccc(N=C(/C(C(=O)C(=O)N2CCOCC2)=C(\O)c2ccccc2)c2ccccc2)cc1	38.6 µM	> 100 µM	–
O=C(CCl)N(c1ccccc1)c1c[nH]c2ccccc12	3.84 µM	8.14 µM	0.995 µM
O=C(Cc1cccs1)N1CCN=C1SCc1ccc(Br)cc1	–	> 100 µM	–
CCOC(=O)c1cnc(-n2nc(C)cc2C)nc1N(CC)CC	3.78 µM	6.53 µM	> 40 µM
Cc1cccc(N2CCN(C(=O)c3ccc4nc(N5CCCCC5)sc4c3)CC2)c1C	7.98 µM	11.2 µM	> 40 µM
Oc1ccc2cc(Br)ccc2c1CN1CCCC1	22.2 µM	> 100 µM	> 40 µM
O=C(Nc1ccc(-c2csnn2)cc1)C1CC1	–	> 100 µM	–
O=C(CSc1ncn[nH]1)Nc1ccc(Br)cc1F	29.5 µM	> 100 µM	> 40 µM
